{"source": "patent US20230390323A1", "about": "“SPRAYABLE ANTIVIRAL FORMULATION” (priority 2020, published 2023)", "test_system": "cells", "assay": "Cell compliance with the spray formulations", "type": "cell-based", "protocol": "A study was undertaken to determine cell compliance with the spray formulations over a 48 hour testing period. […] Dose-response was linear (R^2=0.96 and 0.97 for gellan and lambda-carrageenan, respectively), with reduced cell death as the systems became increasing more dilute.", "data": [{"substance": "gellan", "values": [{"measurement": "Reduction in the number of living cells", "value": 2, "unit": "fold"}]}]}
